Measured values taken from PubChem BioAssay (NCI).
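Results reflect a 48-hour exposure of cells in 96-well plates to compound at five concentrations. TGI: total growth inhibition.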

How the values were obtained:
Assay in all cases: NCI tumour cell line growth inhibition, 48 h
[1] = system: SK-MEL-5 melanoma
[2] = system: KM12 colon
[3] = system: UACC-62 melanoma
[4] = system: XF 498 CNS
[5] = system: NCI-H23 lung
[6] = system: OVCAR-8 ovarian
[7] = system: ACHN renal
[8] = system: RXF 393 renal
[9] = system: SF-539 CNS
[10] = system: K-562 leukemia
[11] = system: UO-31 renal
[12] = system: EKVX NSCLC
[13] = system: SK-MEL-28 melanoma
[14] = system: SNB-19 CNS
[15] = system: SW-620 colon
[16] = system: HT29 colon
[17] = system: HCT-116 colon
[18] = system: SNB-75 CNS
[19] = system: SF-268 CNS
[20] = system: NCI-H460 lung
[21] = system: NCI-H226 lung
[22] = system: LXFL 529 NSCLC
[23] = system: HOP-18 NSCLC
[24] = system: UACC-257 melanoma
[25] = system: HOP-62 NSCLC
[26] = system: 786-0 renal
[27] = system: CCRF-CEM leukemia
[28] = system: RPMI-8226 leukemia
[29] = system: IGROV1 ovarian
[30] = system: COLO 205 colon
[31] = system: KM20L2 colon
[32] = system: RXF-631 renal
[33] = system: SNB-78 CNS
[34] = system: LOX IMVI melanoma
[35] = system: HOP-92 NSCLC
[36] = system: M19-MEL melanoma
[37] = system: SF-295 CNS
[38] = system: HCT-15 colon
[39] = system: U251 CNS
[40] = system: M14 melanoma
[41] = system: NCI-H522 lung
[42] = system: OVCAR-3 ovarian
[43] = system: OVCAR-5 ovarian
[44] = system: CAKI-1 renal
[45] = system: DMS 273 small cell lung
[46] = system: HL-60(TB) leukemia
[47] = system: MOLT-4 leukemia
[48] = system: MALME-3M melanoma
[49] = system: A549 NSCLC
[50] = system: SN12C renal
[51] = system: DLD-1 colon
[52] = system: SR leukemia
[53] = system: SK-MEL-2 melanoma
[54] = system: TK-10 renal
[55] = system: A498 renal
[56] = system: SK-OV-3 ovarian
[57] = system: DMS 114 small cell lung
[58] = system: OVCAR-4 ovarian

Measured: TGI

COC(=O)C1=C(C(=O)OC)N(C(C)C)[C@H]2C(C(=O)OC)=C(C(=O)OC)N(C(C)C)[C@@H]12
> 100 µM: all assays above
